# Patent publication US6943189B2, “Combination therapy employing ileal bile acid transport inhibiting benzothiepines and HMG CO-A reductase inhibitors” (G.D. Searle & Co., priority 1994, dated 2005)
# Where two headings read alike, the source gives them in different places.
# Key:
# [1] = tested on: uptake of [14C]-alanine in H14 cells; test: In vitro assay of compounds that inhibit uptake of [14C]-alanine (H14 cells); assay type: cell-based, hamster; conditions: Mesocricetus auratus
# human IBAT = biological target: T1, human IBAT (Homo sapiens, UniProt Q12908); test: In vitro assay of compounds that inhibit IBAT-mediated uptake of [14C]-taurocholate (TC) in H14 cells; assay type: cell-based; conditions: [14C]-taurocholate uptake
# T1 construct: expressed in transfected cells; host or cells: Baby hamster kidney (BHK) cells, clone H14
# T1 sequence (Q12908 1-348): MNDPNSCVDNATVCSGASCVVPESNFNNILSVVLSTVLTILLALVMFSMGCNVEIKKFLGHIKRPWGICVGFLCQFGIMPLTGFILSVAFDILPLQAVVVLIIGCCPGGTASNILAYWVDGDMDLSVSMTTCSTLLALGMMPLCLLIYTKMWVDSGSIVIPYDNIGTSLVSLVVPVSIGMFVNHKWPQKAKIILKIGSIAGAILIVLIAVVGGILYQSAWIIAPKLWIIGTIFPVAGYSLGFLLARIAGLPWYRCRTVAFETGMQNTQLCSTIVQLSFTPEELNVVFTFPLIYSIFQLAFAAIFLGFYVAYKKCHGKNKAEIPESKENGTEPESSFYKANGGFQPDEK
# Protocol: In Vitro Assay of Compounds That Inhibit IBAT-Mediated Uptake of [^14C]-Taurocholate (TC) in H14 Cells
# Baby hamster kidney cells (BHK) transfected with the cDNA of human IBAT (H14 cells) are seeded at 60,000 cells/well in 96 well Top-Count tissue culture plates for assays run within in 24 hours of seeding, 30,000 cells/well for assays run within 48 hours, and 10,000 cells/well for assays run within 72 hours.
# On the day of assay, the cell monolayer is gently washed once with […] assay buffer (Dulbecco's Modified Eaglets medium with 4.5 g/L glucose+0.2% (w/v) fatty acid free bovine serum albumin- (FAF)BSA). To each well 50 ml of a two-fold concentrate of test compound in assay buffer is added along with 50 ml of […] [^14C]-taurocholate in assay buffer (final concentration of […] [^14C]-taurocholate). The cell culture plates are incubated 2 hours at 37° C. prior to gently washing each well twice with […] 4° C. Dulbecco's phosphate-buffered saline (PBS) containing 0.2% (w/v) (FAF)BSA. The wells are then gently washed once with […] 4° C. PBS without (FAF)BSA. To each 200 ml of liquid scintillation counting fluid is added, the plates are heat sealed and shaken for 30 minutes at room temperature prior to measuring the amount of radioactivity in each well on a Packard Top-Count instrument.
# [2] = Cholesterol-fed hamsters: fecal weight and fecal bile acid concentration (FBA); assay type: in vivo, hamster; conditions: mean (SEM), 4% cholestyramine or 0.2% Cpd. No. 25
# Protocol: Measurement of Fecal Bile Acid Concentration (FBA)
# Total fecal output from individually housed hamsters was collected for 24 or 48 hours, dried under a stream of nitrogen, pulverized and weighed. Approximately 0.1 gram was weighed out and extracted into an organic solvent (butanol/water). Following separation and drying, the residue was dissolved in methanol and the amount of bile acid present was measured enzymatically using the 3a-hydroxysteroid steroid dehydrogenase reaction with bile acids to reduce NAD. (Reference: Mashige, F., et al. (1981) Clin. Chem. 27, 1352).
# [3] = Rat Alzet minipump model: fecal weight and fecal bile acid concentration (FBA); assay type: in vivo; conditions: 20 MPL/DAY, mean (SEM)
SMILES,IC50 (human IBAT; read-out: Human TC IC50),also measured
"CCCCC1(CC)CS(=O)(=O)c2ccccc2C(=C2CCCCC2)C1O (stereo not drawn) [Example 10b, 3-Butyl-3-ethyl-4-hydroxy-5-cyclohexylidine-2,3,4,5-tetraydrobenzothiepine-1,1-dioxide]",–,inhibition at 100 µM [1]: 68.6%; IC50 (human IBAT; read-out: IC50 (In vitro Taurocholate Cell Uptake)): 15 µM
"CCCC[C@]1(CC)CS(=O)(=O)c2cc(OC)ccc2[C@@H](c2ccccc2)[C@H]1O [Example 25, (3a,4b,5b) 3-Butyl-3-ethyl-4-hydroxy-8-methoxy-5-phenyl-2,3,4,5-tetrahydrobenzothiepine-1,1-dioxide]",–,24 HR. FECAL Wt (G) [2]: 2.4 (0.04) G; 24 HR. FECAL WT [3]: 5.7 (0.4) G
CCCC[C@]1(CC)CS(=O)(=O)c2ccc(NC(=O)CCCCCCCCCCC(=O)Nc3ccc4c(c3)[C@@H](c3ccccc3)[C@@H](O)[C@](CC)(CCCC)CS4(=O)=O)cc2[C@@H](c2ccccc2)[C@H]1O [Example 101],–,"inhibition at 1 µM ([1]; @ 1.0 μM, read-out: Alanine Uptake Percent Inhibition @ μM): 0%"
CCCC[C@]1(CC)CS(=O)(=O)c2cc(OCCOCCOCCOc3ccc4c(c3)S(=O)(=O)C[C@@](CC)(CCCC)[C@H](O)[C@@H]4c3ccccc3)ccc2[C@@H](c2ccccc2)[C@H]1O [Example 135],22 µM,–
CCCC[C@@]1(CC)CS(=O)(=O)c2cc(OCCOCCOCCOc3ccc4c(c3)S(=O)(=O)C[C@@](CC)(CCCC)[C@@H](O)[C@H]4c3ccccc3)ccc2[C@@H](c2ccccc2)[C@H]1O [Example 137],2.4 µM,–
CCCCC1(CC)CS(=O)(=O)c2ccc(OC)cc2C(c2ccccc2F)C1O (stereo not drawn) [Example 278],3 µM,–
CCCCC1(CCCC)CS(=O)(=O)c2ccc(NC(=O)OCc3ccccc3)cc2[C@@H](c2ccccc2)[C@H]1O [Example 291],0.6 µM,–
CCCCC1(CCCC)CS(=O)(=O)c2ccc(NCc3ccccc3)cc2[C@@H](c2ccccc2)[C@H]1O [Example 293],1.9 µM,–

# Continued, in another order:
IC50 (human IBAT; read-out: Human TC IC50),SMILES,also measured
0.4 µM,CCCCC1(CC)CS(=O)(=O)c2ccc(OC)cc2C(c2cccc(F)c2)C1O (stereo not drawn) [Example 279],–
0.28 µM,CCCCC1(CC)CS(=O)(=O)c2ccc(N(C)C)cc2C(c2ccc(OCCOCCOCCOc3ccc(C4c5cc(N(C)C)ccc5S(=O)(=O)CC(CC)(CCCC)C4O)cc3)cc2)C1O (stereo not drawn) [Example 1211],–
0.25 µM,CCCCC1(CCCC)CS(=O)(=O)c2ccc(NC(C)(C)C)cc2C(c2ccc(F)cc2)C1O (stereo not drawn) [Example 1227],–
0.019 µM,CCCCC1(CCCC)CS(=O)(=O)c2ccc(N(C)C)cc2C(c2ccc(OCCOCCOCCOc3ccc(C4c5cc(N(C)C)ccc5S(=O)(=O)CC(CCCC)(CCCC)C4O)cc3)cc2)C1O (stereo not drawn) [Example 1261],–
0.024 µM,CCCCC1(CCCC)CS(=O)(=O)c2ccc(N(C)C)cc2C(c2ccc(OCCCCCCCCCCI)cc2)C1O (stereo not drawn) [Example 1269],–
0.024 µM,CCCCC1(CCCC)CS(=O)(=O)c2ccc(N(C)C)cc2C(c2ccc(OCCCCBr)c(F)c2)C1O (stereo not drawn) [Example 1270],–
0.012 µM,CCCCC1(CCCC)CS(=O)(=O)c2ccc(N(C)C)cc2C(c2ccc(OCCOCC[S+](CC)CC)c(F)c2)C1O (stereo not drawn) [Example 1299],–
0.44 µM,CCCCC1(CCCC)CS(=O)(=O)c2ccc(N(C)C)cc2C(c2ccc(OCCCCCCCCCCOc3ccccc3[N+](C)(C)CC)cc2)C1O (stereo not drawn) [Example 1351],–
0.052 µM,CCCCC1(CCCC)CS(=O)(=O)c2ccc(N(C)C)cc2C(c2cccc(OCCOCCOCC[N+](CC)(CCCc3ccccc3)CCCc3ccccc3)c2)C1O (stereo not drawn) [Example 1449],–
0.039 µM,CCCCC1(CCCC)CS(=O)(=O)c2ccc(N(C)C)cc2C(c2ccccc2)C1O (stereo not drawn) [Example 1450],–
0.014 µM,CCCCC1(CCCC)CS(=O)(=O)c2ccc(N(C)C)cc2C(c2cccc(NCCCS(=O)(=O)O)c2)C1O (stereo not drawn) [Example 1451],–
